Assay results reported in paper PMC11729419, “Thiol-Reactive or Redox-Active: Revising a Repurposing Screen Led to a New Invalidation Pipeline and Identified a True Noncovalent Inhibitor Against Papain-like Protease from SARS-CoV-2” (ACS Pharmacology & Translational Science, 2024).
Where two headings read alike, the source gives them in different places. * marks the point of attachment. AMC = Cc1cc(=O)oc2cc(N*)ccc12; Cbz = O=C(OCc1ccccc1)*

Columns and labels:
PLpro-NAB [1] = molecular target: T1, PLpro-NAB (Severe acute respiratory syndrome coronavirus 2, UniProt P0DTD1); type: binding, SARS-CoV-2; conditions: consistent in both DTT and L-Cys buffers
PLpro-NAB [2] = molecular target: T1, PLpro-NAB; assay: STD-NMR ligand binding and competition; design: species or system SARS-CoV-2; conditions: for STD amplification factor AMP: 0.15 mM compound, PLpro/compound 1:100
SARS-CoV-2 PLpro-NAB [3] = molecular target: T2, SARS-CoV-2 PLpro-NAB (Severe acute respiratory syndrome coronavirus 2, UniProt P0DTD1); assay: biochemical; conditions: for HP PLpro-NAB inhibition [%] 20 μM triplicates 1 mM L-cys buffer: hit profiling
PLpro-NAB C111S = PLpro-NAB C111S (Severe acute respiratory syndrome coronavirus 2, UniProt P0DTD1, C1674S); type: binding, SARS-CoV-2
SARS-CoV-2 PLpro-NAB [4] = molecular target: T2, SARS-CoV-2 PLpro-NAB; type: biochemical

CCS(=O)(=O)N1CCC([C@@H](C)n2c(C)c(C(=O)NCc3c(OC)cc(C)[nH]c3=O)c3ccccc32)CC1 [CPI-169]
Tm value of PLpro-NAB (PLpro-NAB [1]): concentration-dependent increase in the Tm value
Competitive STD-NMR with GRL-0617 (PLpro-NAB [2]): displacement of CPI-169 from the GRL-0617 binding site
STD amplification factor AMP (PLpro-NAB [2]; proton H11): 0.74
STD amplification factor AMP (PLpro-NAB [2]; proton H13): 1.19
STD amplification factor AMP (PLpro-NAB [2]; proton H23): 0.43
STD amplification factor AMP (PLpro-NAB [2]; proton H35): 0.89
Inhibition in L-cysteine buffer versus DTT buffer (dose-response) (SARS-CoV-2 PLpro-NAB [3]; 1 mM L-cysteine vs 1 mM DTT): did not show variations in inhibition potency or thermal stability
Inhibitory activity on retest in 1 mM L-cysteine (SARS-CoV-2 PLpro-NAB [3]; 50% inhibition at 20 μM, 1 mM L-cysteine): retained their inhibitory activity
HC PLpro-NAB inhibition [%] 20 μM triplicates 1 mM DTT buffer (SARS-CoV-2 PLpro-NAB [3]; hit confirmation, 20 μM, 1 mM DTT buffer, average (SD), 20 μM PR619 = 100%, DMSO = 0%, listed as CPI-169 (FhG)): 99.81 (2.18) %
inhibition at 20 µM (SARS-CoV-2 PLpro-NAB [3]; hit confirmation, 20 μM, 1 mM DTT buffer, average (SD), 20 μM PR619 = 100%, DMSO = 0%, read-out: HC PLpro-NAB inhibition [%] 20 μM triplicates 1 mM DTT buffer): 96%
HP PLpro-NAB inhibition [%] 20 μM triplicates 1 mM L-cys buffer (SARS-CoV-2 PLpro-NAB [3]; 20 μM, average (SD), 20 μM PR619 = 100%, listed as CPI-169 (EOS)): 49.41 (2.14) %
HP PLpro-NAB inhibition [%] 20 μM triplicates 1 mM L-cys buffer (SARS-CoV-2 PLpro-NAB [3]; 20 μM, average (SD), 20 μM PR619 = 100%, listed as CPI-169 (FhG)): 70.67 (1.71) %
Tm / stability of PLpro-NAB C111S (PLpro-NAB C111S): increased the Tm

Cbz-LRGG-{AMC}
Km (SARS-CoV-2 PLpro-NAB [4]): 45.2 µM
Vmax (SARS-CoV-2 PLpro-NAB [4]): 173 041 /min

CCOC(=O)C1=C(C)N=c2sc(=Cc3ccc(OCC(=O)O)cc3)c(=O)n2C1c1ccc(SC)cc1 (stereo not shown) [ML120]
HC PLpro-NAB SARS-CoV-2 inhibition [%] 20 µM triplicates DTT BUFFER (SARS-CoV-2 PLpro-NAB [3]; Table S1, 20 µM, DTT buffer, average (SD)): 82.78 (2.58) %
HP PLpro-NAB SARS-CoV-2 inhibition [%] 20 µM triplicates L-CYS BUFFER (SARS-CoV-2 PLpro-NAB [3]; Table S1, 20 µM, L-cysteine buffer, average (SD)): -56.07 (10.54) %
IC50 (SARS-CoV-2 PLpro-NAB [3]; Table S1, DTT buffer, read-out: HP PLpro-NAB SARS-CoV-2 IC50 [µM] triplicates DTT BUFFER): 3.14 µM
IC50 (SARS-CoV-2 PLpro-NAB [3]; Table S1, L-cysteine buffer, read-out: HP PLpro-NAB SARS-CoV-2 IC50 [µM] duplicates L-CYS BUFFER): > 20 µM
